Measurements reported in patent US6620593B1, “Method for safety evaluation of chemical compound using recombinant yeast expressing human cytochrome P450” (Sumitomo Chemical Company, Limited, priority 1993, dated 2003).
Read-outs that look alike come from different tables or passages of the source.

Columns and labels:
human P450 1A2 = biological target: T1, human P450 1A2 (Homo sapiens, UniProt P05177); experiment: Metabolism (hydroxylation) of substrates using transformed yeast cells or their microsomal fractions expressing human P450 1A2 and yeast NADPH-P450 reductase
T1 sequence (P05177 1-516): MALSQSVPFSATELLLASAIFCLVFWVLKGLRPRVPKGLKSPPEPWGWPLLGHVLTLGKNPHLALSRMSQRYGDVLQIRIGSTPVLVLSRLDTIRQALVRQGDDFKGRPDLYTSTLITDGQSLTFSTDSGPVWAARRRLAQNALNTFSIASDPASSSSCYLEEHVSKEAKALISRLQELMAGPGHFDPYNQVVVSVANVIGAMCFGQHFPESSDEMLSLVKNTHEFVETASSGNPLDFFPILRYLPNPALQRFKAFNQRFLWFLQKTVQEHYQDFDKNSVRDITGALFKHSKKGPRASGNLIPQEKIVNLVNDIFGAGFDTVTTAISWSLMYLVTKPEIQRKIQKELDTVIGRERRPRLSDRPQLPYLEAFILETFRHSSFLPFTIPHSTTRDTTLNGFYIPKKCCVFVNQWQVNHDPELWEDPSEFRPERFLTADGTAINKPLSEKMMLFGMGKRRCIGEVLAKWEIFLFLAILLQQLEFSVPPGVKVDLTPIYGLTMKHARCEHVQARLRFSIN
Procedure: (§1) Then 2 ml of dichloromethane was added.

human P450 2C9 = human P450 2C9 (Homo sapiens, UniProt P11712); experiment: Metabolism (hydroxylation) of substrates using transformed yeast cells or microsomal fractions expressing human P450 2C9
Procedure: as §1

human P450 2E1 = human P450 2E1 (Homo sapiens, UniProt P05181); experiment: Metabolism (hydroxylation) of substrates using transformed yeast cells or microsomal fractions expressing human P450 2E1
Procedure: as §1

human P450 3A4 = experiment: Metabolism (hydroxylation) of substrates using transformed yeast cells or microsomal fractions expressing human P450 3A4
Procedure: as §1

human P450 2A6 = experiment: Metabolism (hydroxylation) of substrates using transformed yeast cells or microsomal fractions expressing human P450 2A6
Procedure: as §1

human P450 2B6 = biological target: T2, human P450 2B6 (Homo sapiens, UniProt P20813); experiment: Metabolism (hydroxylation) of substrates using transformed yeast cells or microsomal fractions expressing human P450 2B6
T2 sequence (P20813 1-491): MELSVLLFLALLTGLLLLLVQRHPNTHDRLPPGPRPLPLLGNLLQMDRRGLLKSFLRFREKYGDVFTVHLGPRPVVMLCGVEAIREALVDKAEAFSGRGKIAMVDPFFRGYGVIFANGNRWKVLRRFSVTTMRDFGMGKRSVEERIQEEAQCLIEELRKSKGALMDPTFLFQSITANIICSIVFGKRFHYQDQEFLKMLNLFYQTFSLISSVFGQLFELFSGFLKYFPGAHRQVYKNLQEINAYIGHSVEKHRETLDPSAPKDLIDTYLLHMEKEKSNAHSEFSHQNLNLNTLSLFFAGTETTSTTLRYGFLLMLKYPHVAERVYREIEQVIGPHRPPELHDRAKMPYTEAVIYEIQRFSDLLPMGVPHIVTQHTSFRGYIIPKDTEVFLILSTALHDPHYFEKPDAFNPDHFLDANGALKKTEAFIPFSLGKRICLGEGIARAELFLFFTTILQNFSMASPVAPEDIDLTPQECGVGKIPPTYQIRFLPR
Procedure: as §1

human P450 2C8 = experiment: Metabolism (hydroxylation) of substrates using transformed yeast cells or microsomal fractions expressing human P450 2C8
Procedure: as §1

human P450 2C18 = biological target: T3, human P450 2C18 (Homo sapiens, UniProt P33260); experiment: Metabolism (hydroxylation) of substrates using transformed yeast cells or microsomal fractions expressing human P450 2C18
T3 sequence (P33260 26-490): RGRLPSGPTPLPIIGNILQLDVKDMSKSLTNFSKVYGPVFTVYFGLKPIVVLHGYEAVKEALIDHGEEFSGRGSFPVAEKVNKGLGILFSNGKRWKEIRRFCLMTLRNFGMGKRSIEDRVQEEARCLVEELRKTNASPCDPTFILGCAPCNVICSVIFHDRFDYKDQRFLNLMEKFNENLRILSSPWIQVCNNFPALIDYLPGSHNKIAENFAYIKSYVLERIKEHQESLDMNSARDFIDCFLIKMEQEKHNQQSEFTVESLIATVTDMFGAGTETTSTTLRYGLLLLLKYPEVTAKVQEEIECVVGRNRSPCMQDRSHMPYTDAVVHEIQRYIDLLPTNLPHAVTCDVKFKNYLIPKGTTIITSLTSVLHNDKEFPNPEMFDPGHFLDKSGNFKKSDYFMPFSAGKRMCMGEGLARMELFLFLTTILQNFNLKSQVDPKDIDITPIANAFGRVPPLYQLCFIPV
Procedure: as §1

human P450 2C19 = human P450 2C19 (Homo sapiens, UniProt P33261); experiment: Metabolism (hydroxylation) of substrates using transformed yeast cells or microsomal fractions expressing human P450 2C19
Procedure: as §1

human P450 2D6 = experiment: Metabolism (hydroxylation) of substrates using transformed yeast cells or microsomal fractions expressing human P450 2D6
Procedure: as §1

[1] = system: mixed microsomal fractions of yeasts expressing human cytochrome P450 (3A4, 2C9, 2C8, 2C18, 2C19, 1A2, 2E1, 1A1, 2B6, 2D6); experiment: Metabolism of debrisoquine using mixture of microsomal fractions of transformed yeast cells; type: in vitro ADME; details: 37° C., 30 min; HPLC
Procedure: The mixing molar ratio of the human cytochrome P450 molecular species were as follows: [table] […] After the mixture was incubated at 37° C. for 30 min, 50 μl of 60% perchlorate was added to the solution to stop the reaction.

human P450 1A1 [2] = biological target: T4, human P450 1A1 (Homo sapiens, UniProt P04798); details: microsomes
T4 sequence (P04798 1-512): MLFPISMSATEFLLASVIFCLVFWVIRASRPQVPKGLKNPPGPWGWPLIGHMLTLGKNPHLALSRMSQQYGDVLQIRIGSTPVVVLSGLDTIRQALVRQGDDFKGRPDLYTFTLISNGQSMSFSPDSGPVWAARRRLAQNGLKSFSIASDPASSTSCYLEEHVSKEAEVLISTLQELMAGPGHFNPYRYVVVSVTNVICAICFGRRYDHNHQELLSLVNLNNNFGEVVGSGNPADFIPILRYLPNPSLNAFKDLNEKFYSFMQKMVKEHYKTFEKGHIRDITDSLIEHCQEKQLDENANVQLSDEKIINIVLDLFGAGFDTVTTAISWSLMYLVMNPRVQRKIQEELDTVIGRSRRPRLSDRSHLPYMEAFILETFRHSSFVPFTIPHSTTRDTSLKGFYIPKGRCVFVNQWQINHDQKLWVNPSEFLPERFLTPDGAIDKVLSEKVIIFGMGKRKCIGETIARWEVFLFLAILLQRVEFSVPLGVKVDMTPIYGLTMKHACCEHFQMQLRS

[3] = system: other human P450 molecular species
[4] = system: mixed system B (eleven human P450 molecular species); experiment: Metabolism of S-mephenytoin using mixture of microsomal fractions of transformed yeast cells (mixing system B); type: in vitro ADME; details: 37° C., 30 min; HPLC
Procedure: The mixing ratio of the human cytochrome P450 molecular species was the same as that of the mixing system B as described above. […] After the mixture was incubated at 37° C. for 30 min, 250 μl of methanol was added to the solution to stop the reaction.

human P450 1A1 [5] = biological target: T4, human P450 1A1; experiment: Metabolism (hydroxylation) of substrates using transformed yeast cells or microsomal fractions expressing human P450 1A1; details: Table 1; recombinant yeast cells or microsomal fractions; conditions per substrate
[6] = system: other human P450 molecular species; experiment: Metabolism of substrates using yeast cells or microsomal fractions expressing the other human P450 molecular species (those not given); details: the remaining of the eleven human P450 species
[7] = Table 1, recombinant yeast cells or microsomal fractions, conditions per substrate

Chain of human P450 2E1 (P05181 whole entry): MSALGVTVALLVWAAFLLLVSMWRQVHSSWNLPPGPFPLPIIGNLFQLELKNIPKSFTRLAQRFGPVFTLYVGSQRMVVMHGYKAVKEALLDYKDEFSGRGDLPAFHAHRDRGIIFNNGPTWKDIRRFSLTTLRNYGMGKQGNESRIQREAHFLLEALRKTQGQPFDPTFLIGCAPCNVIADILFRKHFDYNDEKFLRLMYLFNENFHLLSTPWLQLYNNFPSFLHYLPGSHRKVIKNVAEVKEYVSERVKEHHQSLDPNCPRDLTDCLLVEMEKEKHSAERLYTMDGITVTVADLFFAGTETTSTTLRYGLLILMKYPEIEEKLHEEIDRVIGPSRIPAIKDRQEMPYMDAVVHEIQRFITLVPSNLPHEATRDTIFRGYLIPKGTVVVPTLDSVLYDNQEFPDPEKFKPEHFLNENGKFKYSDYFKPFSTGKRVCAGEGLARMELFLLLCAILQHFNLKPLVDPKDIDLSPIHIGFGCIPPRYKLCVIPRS
Chain of human P450 2C9 (P11712 whole entry): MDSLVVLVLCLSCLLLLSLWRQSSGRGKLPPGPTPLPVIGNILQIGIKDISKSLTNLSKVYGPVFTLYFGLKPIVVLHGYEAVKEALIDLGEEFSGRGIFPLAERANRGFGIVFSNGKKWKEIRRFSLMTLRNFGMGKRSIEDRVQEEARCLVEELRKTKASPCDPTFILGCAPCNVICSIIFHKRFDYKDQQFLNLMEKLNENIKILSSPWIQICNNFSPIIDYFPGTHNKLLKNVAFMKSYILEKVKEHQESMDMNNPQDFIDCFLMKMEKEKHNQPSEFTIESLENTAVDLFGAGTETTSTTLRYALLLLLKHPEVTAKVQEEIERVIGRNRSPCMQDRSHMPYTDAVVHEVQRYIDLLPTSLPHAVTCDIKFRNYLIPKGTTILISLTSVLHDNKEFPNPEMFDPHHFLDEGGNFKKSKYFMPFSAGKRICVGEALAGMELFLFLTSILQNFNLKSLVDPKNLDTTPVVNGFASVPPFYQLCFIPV
Chain of human P450 2C19 (P33261 whole entry): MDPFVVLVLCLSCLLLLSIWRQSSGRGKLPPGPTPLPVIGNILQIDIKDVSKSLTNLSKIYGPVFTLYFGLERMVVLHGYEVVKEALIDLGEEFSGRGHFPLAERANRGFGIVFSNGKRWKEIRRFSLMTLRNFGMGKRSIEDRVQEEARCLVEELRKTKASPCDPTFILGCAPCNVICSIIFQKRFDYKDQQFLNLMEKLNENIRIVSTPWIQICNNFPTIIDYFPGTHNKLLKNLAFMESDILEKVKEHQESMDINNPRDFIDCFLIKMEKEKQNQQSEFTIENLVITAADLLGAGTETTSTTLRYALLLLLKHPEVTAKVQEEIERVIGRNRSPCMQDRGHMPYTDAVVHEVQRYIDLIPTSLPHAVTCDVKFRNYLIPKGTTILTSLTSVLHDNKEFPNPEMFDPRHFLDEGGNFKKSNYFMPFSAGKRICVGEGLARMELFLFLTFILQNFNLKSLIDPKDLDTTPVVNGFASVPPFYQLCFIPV

| SMILES | Hydroxylation activity, human P450 3A4 (human P450 3A4; microsomes) | Hydroxylation activity, human P450 2A6 (human P450 2A6; microsomes) | Hydroxylation activity, human P450 2C8 (human P450 2C8; microsomes) | Hydroxylation activity, human P450 2D6 (human P450 2D6; microsomes) | Hydroxylated metabolite / hydroxylation activity with yeast expressing other human P450 than those named [3] | Hydroxylation activity, human P450 1A2 (human P450 1A2; [7]) | Hydroxylation activity, human P450 2E1 (human P450 2E1; [7]) | Hydroxylation activity, human P450 2B6 (human P450 2B6; [7]) | Hydroxylation activity, human P450 2C18 (human P450 2C18; [7]) | Hydroxylation activity, human P450 1A1 (human P450 1A1 [5]) | also measured |
| --- | --- | --- | --- | --- | --- | --- | --- | --- | --- | --- | --- |
| N=C(N)N1CCc2ccccc2C1 [Debrisoquine] | − | − | − | + + + | no activity |  |  |  |  |  | Hydroxylation activity, human P450 1A2 (human P450 1A2; microsomes): −; Hydroxylation activity, human P450 2C9 (human P450 2C9; microsomes): −; Hydroxylation activity, human P450 2E1 (human P450 2E1; microsomes): −; Hydroxylation activity, human P450 2B6 (human P450 2B6; microsomes): −; Hydroxylation activity, human P450 2C18 (human P450 2C18; microsomes): −; Hydroxylation activity, human P450 2C19 (human P450 2C19; microsomes): −; Metabolites compared with those reported for human liver microsome (Kronbach) [1]: well coincided; Hydroxylation activity, human P450 1A1 (human P450 1A1 [2]): + + |
| CC[C@@]1(c2ccccc2)NC(=O)N(C)C1=O [S-Mephenytoin] | − | − | − | − | no activity | − | − | − | − | − | Hydroxylation activity, human P450 2C9 (human P450 2C9; [7]): −; Metabolites compared with those reported for human liver microsome (Goldstein) [4]: well coincided |
| C[C@]12CC[C@H]3[C@@H](CCC4=CC(=O)CC[C@@]43C)[C@@H]1CC[C@@H]2O [Testosterone] |  |  |  |  |  | − | − | − | − | + | Metabolising (hydroxylation / O-deethylation) activity in words, P450 3A4 (human P450 3A4; 7-ethoxycoumarin 0.5 mM, testosterone 0.05 mM, chlorzoxazone 0.5 mM or 250 μM, acetanilide 5 mM): detected; Hydroxylation activity, human P450 3A4 (human P450 3A4; [7]): + + +; Hydroxylation activity, human P450 2A6 (human P450 2A6; [7]): −; Metabolising (hydroxylation / O-deethylation) activity in words, P450 2C8 (human P450 2C8; 7-ethoxycoumarin 0.5 mM, tolbutamide 1.0 mM, testosterone 0.05 mM, chlorzoxazone, acetanilide 5 mM): detected; Hydroxylation activity, human P450 2C8 (human P450 2C8; [7]): +; Hydroxylation activity, human P450 2C19 (human P450 2C19; [7]): −; Hydroxylation activity, human P450 2D6 (human P450 2D6; [7]): −; Hydroxylated metabolite / hydroxylation activity with yeast expressing other human P450 than those named [6]: not detected |
